Source: PMC9313812, “The Pseudo‐Natural Product Rhonin Targets RHOGDI” (Angewandte Chemie (International Ed. in English), 2022)
Read-outs that look alike come from different tables or passages of the source.

Key:
C3H/10T1/2 cells = assay: Osteoblast differentiation assay (ODA): purmorphamine-induced osteogenesis, alkaline phosphatase luminescence readout; format: cell-based, mouse; set-up: key to Osteogenesis IC50: Compounds are marked inactive when no inhibition was observed at the highest test concentration of 30 µM; conditions: for Inhibition of Hh-/purmorphamine-induced osteogenesis (in words): C3H/10T1/2 cells; for IC50 / Osteogenesis IC50: 1.5 µM purmorphamine, 96 h, n=3
Method: Supplementary Table S7. Inhibition of osteogenesis assay. C3H10T1/2 cells were incubated with 1.5 µM purmorphamine and compounds or DMSO as a control for 96 h. The activity of alkaline phosphatase was assessed by means of a luminescence readout. Values for cells, which were treated with DMSO and purmorphamine, were set to 100% and data were measured in […]
concentration of 30 µM. All data are mean values of three independent experiments (n = 3) ± […]
Compound Osteogenesis IC50
(1 picture or pasted object on this page, not shown here)
NIH/3T3 cells were obtained from DSMZ, Germany (DSMZ ACC 59) and were cultured in DMEM (high glucose) supplemented with 10% heat-inactivated FCS, 2 mM L -glutamine and 1 mM sodium pyruvate. Shh -LIGHT2 cells (NIH/3T3 cells stably transfected with a Gli-responsive firefly luciferase reporter plasmid and a pRL-TK constituitive Renilla luciferase expression vector)[4] were cultured in the same culturing medium supplemented with 400 μg ml −1 G418 and 150 μg ml −1 Zeocin as selecting agents. The murine osteoblasts C3H/10T1/2 (ATCC CCL-226) were obtained from ATCC, USA and were cultured in DMEM (high glucose) supplemented with 10% heat-inactivated FCS, 6 mM L -glutamine, 1 mM sodium pyruvate. HEK293T cells (ATCC, England) were grown in DMEM containing 10% FBS, 100 U ml −1 penicillin and 0.1 mg ml −1 streptomycin. All cell lines were maintained at 37 °C and 5% CO 2 in a humidified atmosphere. All the cell lines were regularly assayed for mycoplasma and were confirmed to be mycoplasma-free. Transfection of DNA constructs and siRNAs were performed using FuGENE HD (Promega), Lipofectamine® LTX (Invitrogen) and DharmaFECT™ (GE Healthcare) transfection reagent according to the manufacturer’s […]
Osteoblast differentiation assay
The osteoblast differentiation assay was performed by the Compound Management and Screening Center (COMAS) in Dortmund, Germany. C3H/10T1/2 cells were seeded (800 per well) in white 384-well plates or (6000 per well) in 96-well plates. After incubation for 16 h, compounds or DMSO were added to the cells using the acoustic nanoliter dispenser ECHO 520 (Labcyte) and osteogenesis was induced with 1.5 µM purmorphamine. Plates were incubated for 96 h at 37 °C and 5% CO2. Alkaline phosphatase activity was measured by replacing the medium with osteogenesis-lysis buffer (lysis buffer: 100 mM Tris pH 9.5, 250 mM NaCl, 25 mM MgCl2, 1% Triton X-100, sterile filtered) containing 1:100 chemiluminescent substrate CDP-Star® (Promega, 384-well plates: 35 µL, 96-well plates: 50 µL) for one hour in the dark at 25 °C. In 384-well plates, the luminescence was monitored using the Paradigm plate reader (Molecular Devices, USA), whereas Spark plate reader (Tecan, Austria) was used to measure luminescence in 96-well plates. Dose-response analyses were performed for all hit compounds […]
using a three-fold dilution series starting from a concentration of 30 μM. Half-maximal inhibitory concentrations (IC50) were calculated using the Quattro software suite (Quattro Research, Planegg, Germany) or GraphPad Prism 7 (GraphPad, USA).
The effect of test compounds on the viability of C3H/10T1/2 cells was determined by CellTiter-Glo Luminescence cell viability assay (Promega). Cells were treated as described for the osteogenesis assay prior to addition of the CellTiter-Glo® reagent according to manufacturer’s protocol. Compounds causing at least a 50% reduction in the osteogenesis assay and retaining cell viability of at least 80% were considered as hits. Dose-response analyses were performed for all hit compounds using a three-fold dilution series starting from a concentration of 30 μM. Half-maximal inhibitory concentrations (IC50) were calculated using the Quattro software suite (Quattro Research GmbH). […]

Shh-LIGHT2 cells = assay: GLI-dependent reporter gene assay (RGA); format: cell-based; conditions: Shh Light2; Figure 2a; mean of three independent experiments
Method: using a three-fold dilution series starting from a concentration of 30 μM. Half-maximal inhibitory concentrations (IC50) were calculated using the Quattro software suite (Quattro Research, Planegg, Germany) or GraphPad Prism 7 (GraphPad, USA). […]
GLI-dependent reporter gene assay
Shh-LIGHT2 cells were seeded (2.5×10^4 per well) in 96-well plates. After incubation for 16 h, medium was replaced by low serum-containing medium (0.5% FCS) supplemented with 1.5 μM purmorphamine and various concentrations of the compounds or DMSO as a control and cells were incubated for 48 h. […]

[1] = Mus musculus, C3H 10T1/2, Table S7, mean ± SD, highest test concentration 30 µM, read-out: Osteogenesis IC50
[2] = Table S13, Rac, Cdc42 and ROCK inhibitors, read-out: Osteogenesis IC50 ± SD
[3] = Table S7, mean ± SD, highest test concentration 30 µM
[4] = Mus musculus, C3H 10T1/2, Table S13, Rac, Cdc42 and ROCK inhibitors, read-out: Osteogenesis IC50 ± SD

| Structure (SMILES) | Osteogenesis IC50 (C3H/10T1/2 cells; [3]) | further results |
| --- | --- | --- |
| COC(=O)C1(CCC(C)=O)N=C(c2ccc(Br)cc2)C2C(=O)N(C)C(=O)C21 (stereo not shown) [7c] | – | Inhibition of Hh-/purmorphamine-induced osteogenesis (in words) (C3H/10T1/2 cells): active; IC50 (C3H/10T1/2 cells; [1]): 6200 ± 1300 nM; IC50 (Shh-LIGHT2 cells): 8000 nM |
| Cc1cncc2cccc(S(=O)(=O)N3CCCNC[C@@H]3C)c12 [H-1152, reference compound] | – | IC50 (C3H/10T1/2 cells; [2]): 2870 nM |
| O=c1cc(CN2CCOCC2)occ1OCCCCCSc1ccnc2cc(C(F)(F)F)ccc12 [EHT 1864, reference compound] | – | IC50 (C3H/10T1/2 cells; [2]): > 2000 nM |
| COC(=O)C1(C=CC(=O)c2ccccc2)N=C(c2ccc(Br)cc2)C2C(=O)N(C)C(=O)C21 (stereo not shown) [7g] | – | IC50 (C3H/10T1/2 cells; [1]): 3130 ± 200 nM; IC50 (Shh-LIGHT2 cells): 6150 nM |
| COC(=O)C1(C2CC(=O)N(c3ccccc3)C2=O)N=C(c2ccc(F)cc2)C2C(=O)N(C)C(=O)C21 (stereo not shown) [6c] | inactive | – |
| COC(=O)C1(C2CC(=O)N(c3ccccc3)C2=O)N=C(c2ccc(C(C)(C)C)cc2)C2C(=O)N(C)C(=O)C21 (stereo not shown) [6d] | inactive | – |
| COC(=O)C1(CCC(=O)C=Cc2ccccc2)N=C(c2ccc(Br)cc2)C2C(=O)N(C)C(=O)C21 (stereo not shown) [7e] | – | IC50 (C3H/10T1/2 cells; [1]): 2810 ± 400 nM; IC50 (Shh-LIGHT2 cells): 4240 nM |
| COC(=O)C12NC(c3ccc(Br)cc3)(C3C(=O)N(c4ccccc4)C(=O)C31)C1C(=O)N(C3CCCCC3)C(=O)C12 (stereo not shown) [5f] | inactive | – |
| Cc1cc(C)nc(NS(=O)(=O)c2ccc(NC(=S)NC(=O)COc3ccc(Br)cc3Cl)cc2)n1 [ZCL278, reference compound] | – | Osteogenesis, activity at 2 µM (C3H/10T1/2 cells; Table S13, 2 µM, DMSO + purmorphamine = 100%): 75% |
| COc1cc(C2=NC(C)=C(C(=O)Nc3ccc4[nH]ncc4c3)C(c3ccc(Cl)cc3F)N2)ccn1 (stereo not shown) [GSK534911A, reference compound] | – | IC50 (C3H/10T1/2 cells; [4]): 1550 ± 500 nM |
| COC(=O)C12NC(c3ccc(C)cc3)(C3C(=O)N(C)C(=O)C31)C1C(=O)N(c3ccccc3)C(=O)C12 (stereo not shown) [5b] | inactive | – |
| CN(C)CCOc1cc(-c2cn[nH]c2)ccc1NC(=O)C1COc2ccccc2O1 (stereo not shown) [SR-3677, reference compound] | – | IC50 (C3H/10T1/2 cells; [4]): 1720 ± 100 nM |
| COC(=O)C12NC(c3ccc(Br)cc3)(C3C(=O)N(C)C(=O)C31)C1C(=O)N(c3ccccc3)C(=O)C12 (stereo not shown) [5a] | inactive | – |
| COC(=O)C1(C2CC(=O)N(c3ccccc3)C2=O)N=C(c2cccc(OC)c2)C2C(=O)N(C)C(=O)C21 (stereo not shown) [6e] | inactive | – |
| COC(=O)C1(C2CC(=O)N(c3ccccc3)C2=O)N=C(c2ccc(Br)cc2)C2C(=O)N(C)C(=O)C21 (stereo not shown) [6a] | inactive | – |
| COC(=O)[C@@]1([C@H](CC(=O)c2ccc(Br)cc2)c2ccc(C(=O)NCCOCCOCCNC(=O)OC(C)(C)C)cc2)N=C(c2ccc(Br)cc2)[C@H]2C(=O)N(C)C(=O)[C@H]21 [S10b] | inactive | – |
| COC(=O)C=C(C(=O)OC)C1(C(=O)OC)N=C(c2ccc(Br)cc2)C2C(=O)N(C)C(=O)C21 (stereo not shown) [7h] | inactive | – |
| COC(=O)c1ccc(C23NC(C(=O)OC)(C4C(=O)N(C)C(=O)C42)C2C(=O)N(c4ccccc4)C(=O)C23)cc1 (stereo not shown) [5c] | inactive | – |
| COC(=O)C1(C(CC(=O)c2ccc(Br)cc2)c2ccccc2)N=C(c2ccc(Br)cc2)C2C(=O)N(C)C(=O)C21 (stereo not shown) [7b] | inactive | Inhibition of Hh-/purmorphamine-induced osteogenesis (in words) (C3H/10T1/2 cells): abolished activity |
| COC(=O)C1(C2CC(=O)N(c3ccccc3)C2=O)N=C(c2ccc(C(F)(F)F)cc2)C2C(=O)N(C)C(=O)C21 (stereo not shown) [6b] | inactive | – |
| COC(=O)C12NC(c3ccc(Cl)cc3)(C3C(=O)N(C)C(=O)C31)C1C(=O)N(c3ccccc3)C(=O)C12 (stereo not shown) [5d] | inactive | – |
| COC(=O)C=C(C(=O)OC)C1(C(=O)OC)N=C(c2ccc(Br)cc2)C2C(=O)N(c3ccccc3)C(=O)C21 (stereo not shown) [7i] | inactive | – |
| COC(=O)C1(CCC(C)=O)N=C(c2ccc(Br)cc2)C2C(=O)N(c3ccccc3)C(=O)C21 (stereo not shown) [7f] | inactive | Inhibition of Hh-/purmorphamine-induced osteogenesis (in words) (C3H/10T1/2 cells): activity was lost |
| CCn1c2ccccc2c2cc(Nc3ccnc(NCCCN4CCOCC4)n3)ccc21 [EHop-016, reference compound] | – | IC50 (C3H/10T1/2 cells; [2]): 881 ± 80 nM |
| CCCN1C(=O)C2C(C1=O)C1(c3ccc(Br)cc3)NC2(C(=O)OC)C2C(=O)N(c3ccccc3)C(=O)C21 (stereo not shown) [5e] | inactive | – |
